Entries after “also recorded” stand apart in the source; their conditions may differ. Where two headings read alike, the source gives them in different places.
Legend:
[1] = target: T1, electric eel acetylcholinesterase (eeAChE) (Electrophorus electricus, UniProt O42275); assay: AChE inhibition, adapted Ellman method; type: biochemical; settings: mean of two independent experiments ± SD, read-out: AChE Inhib IC50
T1 construct: purchased Sigma-Aldrich (Steinheim, Germany)
Method: (§1) The enzyme inhibition of electric eel acetylcholinesterase (eeAChE) and equine butyrylcholinesterase (eqBChE) by our compounds was evaluated through an adaptation of Elmman´s method using reagents from Sigma-Aldrich (Steinheim, Germany). Stock solutions of each compound (1 mg) in MeOH (1 mL) were prepared and then working solutions for each ligand were obtained by the corresponding dilution of the stock solutions. A control measurement with 5 replicates (without ligand) and a calibration curve of 5 points with 3 replicates per point was performed. The preparation of each solution involved fixed volumes of 4-(2-hydroxyethyl)-1-piperazine-ethanesulfonic acid (HEPES) and cholinesterase (eeAChE or eqBChE) with different volumes of ligand solution, and it was left to rest for 15 min immediately after adding the cholinesterase. A blank solution containing HEPES and MeOH was also prepared at the same time. […] The slope for each calibration point (absorbance versus reaction time) was determined and the inhibition for each compound was calculated by using the following equation: %Inhibition=100−(vi/v0×100) where vi is the reaction rate (slope) for each point of the calibrate with ligand and v0 is the initial reaction rate (slope) for the control point (without ligand). […] Experiments were performed twice for each compound.

[2] = target: T2, equine butyrylcholinesterase (eqBChE) (Equus caballus, UniProt P81908); assay: BChE inhibition, adapted Ellman method; type: biochemical; settings: for SI (selectivity index): IC50 (AChE)/IC50 (BChE); for IC50: eqBChE, mean of two independent experiments ± SD, read-out: BChE Inhib IC50
T2 construct: purchased Sigma-Aldrich (Steinheim, Germany)
T2 sequence (P81908 whole entry): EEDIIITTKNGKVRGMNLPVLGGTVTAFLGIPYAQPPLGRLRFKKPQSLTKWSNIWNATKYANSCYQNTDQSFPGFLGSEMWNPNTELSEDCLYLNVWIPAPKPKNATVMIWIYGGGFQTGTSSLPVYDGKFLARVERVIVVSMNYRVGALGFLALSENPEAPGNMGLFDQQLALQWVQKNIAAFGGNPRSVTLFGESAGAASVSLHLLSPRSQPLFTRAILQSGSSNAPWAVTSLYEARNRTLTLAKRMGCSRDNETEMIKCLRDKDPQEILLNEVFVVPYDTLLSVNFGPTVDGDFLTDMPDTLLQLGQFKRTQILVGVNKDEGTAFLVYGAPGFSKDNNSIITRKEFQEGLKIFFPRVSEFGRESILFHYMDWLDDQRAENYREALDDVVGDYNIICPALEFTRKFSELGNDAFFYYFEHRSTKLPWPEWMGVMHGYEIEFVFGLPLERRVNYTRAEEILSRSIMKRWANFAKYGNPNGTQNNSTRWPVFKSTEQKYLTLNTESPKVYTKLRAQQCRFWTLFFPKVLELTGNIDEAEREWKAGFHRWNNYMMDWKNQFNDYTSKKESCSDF
Method: as §1

Aβ1-42 = target: T3, Aβ1-42 (Homo sapiens, UniProt P05067); assay: Inhibition of Aβ1-42 self-aggregation, thioflavin T fluorescence; type: biochemical; settings: Cinhibitor = 20 µM, Aβ1-42 40 µM, 37 °C, 24 h, read-out: Aβ42 Self-Aggreg. Inhib
T3 construct: purchased Genecust, Boynes, France
T3 sequence (P05067 672-713 limits assumed): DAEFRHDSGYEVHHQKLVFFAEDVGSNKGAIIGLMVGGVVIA
Method: The Aβ peptide (Genecust, Boynes, France) was treated with 1,1,1,3,3,3-hexafluoropropan-2-ol (HFIP, Aldrich, Steinheim, Germany) and dissolved in a CH3CN/Na2CO3 (300 µM)/NaOH (250 µM) ([…], v/v/v) mixture in order to have a stable stock solution of Aβ1-42 with concentration 500 µM.
Solutions of the assayed compounds (0.5 mg/mL) were firstly prepared in 60% (v/v) DMSO/MeOH medium and then diluted in phosphate buffer (0.215 M, pH 8.0) to a concentration of 120 µM. The Aβ1-42 aggregation inhibition assays were performed according to a reported method based on the fluorescence emission of thioflavin T (ThT, Aldrich Steinheim, Germany). Therefore, Aβ1-42 (40 µM) was incubated at 37 °C for 24 h in phosphate buffer and in the presence or absence of each ligand (20 µM). Then, the samples were added to a 96-well plate with 180 µL of 5 µM ThT in 50 mM glycine-NaOH (pH 8.5) buffer. Blank samples were identically prepared for each concentration but in the absence of the peptide. The ThT fluorescence was measured at 445 nm (excitation) and 485 nm (emission). The percent of aggregation inhibition was calculated by the following equation:I% = 100 − (IFi/IF0 × 100), in which IFi and IF0 are the fluorescence intensities, in the presence and the absence of the tested compound, subtracted from the fluorescence intensities due to the respective blanks. The reported values were obtained as the mean ± SEM of two different experiments performed in duplicate.
The inhibitory capacity of the RIV-IND hybrids towards Aβ42 self-aggregation was evaluated in vitro by molecular fluorescence spectroscopy through the thioflavin T (ThT) method. In fact, since there is an increase in the absorbance and emission of ThT when it binds to amyloid fibrils, it is possible to determine the percent of Aβ42 self-aggregation (see Table 1). The assays were performed in the presence of 20 µM of inhibitor to overcome the solubility limitations of some compounds in the phosphate buffer aqueous medium.

SH-SY5Y cells [3] = assay: Cell viability dose-response screening, MTT; type: cell-based, human; settings: 24 h, screening 0.5 µM to 20 µM
Method: (§2) Cell viability, following treatment with the compounds, was determined using the colorimetric MTT (3-(4,5-dimethylthiazol-2-yl)-2,5-diphenyltetrazolium bromide) assay. The tested compounds (5a1-3, 5b1-3, 5c1-3) were dissolved in DMSO to produce stock solutions of 25 mM and stored at −20 °C. A concentration screening was performed for 0.5 µM to 20 µM final concentrations to choose the highest nontoxic concentration. SH-SY5Y human neuroblastoma cell line (ATCC-CRL-2266) was cultured in Dulbecco’s modified Eagle’s medium (DMEM) (Gibco-Invitrogen, Life Technologies Ltd., Waltham, MA, USA) with heat-inactivated fetal calf serum (10%), penicillin (50 U/mL) and streptomycin (50 µg/mL) at 37 °C with 5% CO2. Cells were plated at 0.15 × 10^6 cells/mL one day prior to the start of the experiment. The cells were then incubated with the appropriate concentration of the compounds for 24 h. After the incubation period, the cells were washed once with PBS and incubated with 200 µL MTT (0.5 mg/mL) for 2 h at 37 °C with 5% CO2. During this period, cellular dehydrogenase successfully metabolized MTT into formazan, which was then solubilized using 200 µL of 0.04 M HCl/isopropanol. Absorbance was measured at 570 nm.
The new RIV-IND hybrids were tested to determine their protective role in the toxicity induced by either Aβ1-42 peptides or iron/ascorbate. SH-SY5Y cells were incubated with a set of concentrations of each of the compounds and a dose–response curve was constructed to select the highest nontoxic concentration.
Figure 3 Dose–response screening of RIV-IND compounds 5a1-3, 5b1-3 and 5c1-3 measured by MTT reduction ability on SH-SY5Y cells treated with different concentrations of the compounds for 24 h. Results are expressed relatively to untreated cells, with the mean ± standard error of the mean (SEM) derived from three independent experiments. * p < 0.05; ** p < 0.01; *** p < 0.001 compared to untreated cells. (The dot line indicates 100% cellular viability).

SH-SY5Y cells [4] = assay: Neuroprotection against iron/ascorbate-induced toxicity, MTT; type: cell-based, human; settings: ferrous sulfate 5 mM and L-ascorbic acid 2.5 mM, 24 h, optimized concentration of each compound
Method: as §2
To test whether the compounds have a protective effect against toxicity induced by Aβ1-42 or iron/ascorbate, the cells were pre-incubated for 1 h with each compound, followed by the addition of Aβ1-42 or iron/ascorbate and incubation for an additional 24 h. Aβ1-42 (Bachem, Torrance, CA, USA) was prepared in sterile water to produce a stock solution of 443 µM and added to the cells at a final concentration of 1 µM. […] All data are expressed as mean ± SEM of at least three independent experiments performed in duplicate. […]
Figure 5 Neuroprotective effect of RIV-IND compounds against cellular toxicity induced by iron/ascorbate (Fe/Asc) measured by MTT reduction ability on SH-SY5Y cells pretreated with iron/ascorbate for one hour, followed by a 24 h incubation with the optimized concentration of each compound. […]

[5] = DPPH free radical scavenging (antioxidant) assay; settings: read-out: Antioxidant Activity EC50; DPPH method, mean of three independent experiments
Method: The radical scavenging activity (antioxidant capacity) of the herein-developed RIV-IND hybrids was determined by the DPPH method [33]. Working solutions of the compounds in 10% DMSO/MeOH (, HoneywellSeelze, Germany) medium were used to prepare 5 methanolic solutions (5 points, 3 replicates) containing DPPH (Sigma-Aldrich, Steinheim, Germany) and different concentrations of compound up to 3.5 mL total volume. […] The respective antioxidant activity (%AA) was calculated using the following equation: %AA=ADPPH−Aligand/ADPPH×100
The reported results were obtained as the mean values of three independent experiments.
The new RIV-IND compounds were also screened for their radical scavenging activity (EC50), according to the 2,2-diphenyl-1-picrylhydrazyl (DPPH) free radical method.

[6] = parameters: method as in PMID 23344203; settings: reference antioxidant; read-out: radical scavenging activity EC50; cited from earlier work
SH-SY5Y cells [7] = assay: Neuroprotection against Aβ1-42-induced toxicity, MTT; type: cell-based, human; settings: Aβ1-42 1 µM, 24 h, optimized concentration of each compound
Method: as §2
To test whether the compounds have a protective effect against toxicity induced by Aβ1-42 or iron/ascorbate, the cells were pre-incubated for 1 h with each compound, followed by the addition of Aβ1-42 or iron/ascorbate and incubation for an additional 24 h. Aβ1-42 (Bachem, Torrance, CA, USA) was prepared in sterile water to produce a stock solution of 443 µM and added to the cells at a final concentration of 1 µM. Ferrous sulfate and L-ascorbic acid (Sigma Chemical Co, St. Louis, MO, USA), prepared in sterile water, were added to the medium together at a final concentration of 5 mM and 2.5 mM, respectively. For this assay, the optimal concentration of each compound was used to prevent cellular demise induced by Aβ1-42 or iron/ascorbate. Compound 5a1 was added to the medium at a 1 µM final concentration; compounds 5a2, 5a3, 5b1, 5b2 and 5c2 were added to the medium at a 2.5 µM final concentration; compounds 5c1 and 5c3 were added to the medium at a 5 µM final concentration; and compound 5b3 was added to the medium at a 10 µM final concentration. […] Controls were employed for each plate using untreated cells and Aβ1-42 or iron/ascorbate only. Cell reduction ability was normalized to the untreated condition. All data are expressed as mean ± SEM of at least three independent experiments performed in duplicate. Statistical analyses were performed for normality assessment using Shapiro–Wilk’s test followed by the Kruskal–Wallis test considering that normality was not verified. Post hoc analysis was performed using uncorrected Dunn’s test. A p value < 0.05 was considered statistically significant.
Figure 4 Neuroprotective effect of RIV-IND compounds against cellular toxicity induced by Aβ1-42 measured by MTT reduction ability on SH-SY5Y cells pretreated with […] for one hour, followed by a 24 h incubation with the optimized concentration of each compound. Results are expressed relatively to untreated cells, with the mean ± standard error of the mean (SEM) derived from three to seven independent experiments. * p < 0.05; ** p < 0.01; *** p < 0.001; **** p < 0.0001 compared to untreated cells. # p < 0.05 compared to Aβ1-42-treated cells. (The dot line indicates the decrease in cellular viability induced by Aβ).

T1 sequence (O42275 24-633): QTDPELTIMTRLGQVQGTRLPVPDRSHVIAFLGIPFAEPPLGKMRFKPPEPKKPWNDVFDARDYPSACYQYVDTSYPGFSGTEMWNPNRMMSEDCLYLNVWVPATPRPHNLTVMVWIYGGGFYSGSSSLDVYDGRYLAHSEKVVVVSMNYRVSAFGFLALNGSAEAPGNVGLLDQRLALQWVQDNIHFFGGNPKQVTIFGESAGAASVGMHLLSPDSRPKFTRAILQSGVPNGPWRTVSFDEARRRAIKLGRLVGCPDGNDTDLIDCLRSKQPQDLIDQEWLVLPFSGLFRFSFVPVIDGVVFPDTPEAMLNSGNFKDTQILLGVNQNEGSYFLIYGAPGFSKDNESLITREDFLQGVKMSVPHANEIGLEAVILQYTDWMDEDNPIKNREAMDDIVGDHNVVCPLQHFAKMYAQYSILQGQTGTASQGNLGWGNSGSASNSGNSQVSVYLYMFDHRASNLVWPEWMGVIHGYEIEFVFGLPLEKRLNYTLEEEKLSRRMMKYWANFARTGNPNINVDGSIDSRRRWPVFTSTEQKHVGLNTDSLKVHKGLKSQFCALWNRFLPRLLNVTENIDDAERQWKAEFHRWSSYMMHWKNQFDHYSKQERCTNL

SMILES	IC50 [1]	SI (selectivity index) [2]	IC50 [2]	inhibition at 20 µM (Aβ1-42)	highest nontoxic concentration (SH-SY5Y cells [3])	neuroprotective effect against toxicity induced by iron/ascorbate (SH-SY5Y cells [4])	EC50 [5]	EC50 [6]	neuroprotective effect against toxicity induced by Aβ1-42 (SH-SY5Y cells [7])
CCN(C)C(=O)Oc1cccc(CNC(=O)c2cc3cccc(O)c3[nH]2)c1 [Compound 5b3, 3-((7-Hydroxy-1H-indole-2-carboxamido)methyl)phenyl-ethyl(methyl)carbamate]	80.7 ± 0.4 µM	14.2	5.7 ± 0.3 µM	47.8%	10 µM	able to significantly increase cell viability after the trigger; also recorded: able to significantly protect cell viability after iron/ascorbate oxidative insult	20.2 ± 0.4 µM		
O=C1O[C@H]([C@@H](O)CO)C(O)=C1O [vitamin C]								15 µM	
CCN(C)C(=O)Oc1cccc(CNC(=O)c2cc3cc(O)ccc3[nH]2)c1 [Compound 5b2, 3-((5-Hydroxy-1H-indole-2-carboxamido)methyl)phenyl-ethyl(methyl)carbamate]	80 ± 2 µM	3.0	27.1 ± 0.1 µM	29.4%	2.5 µM		7.8 ± 0.5 µM		can prevent the toxicity induced by Aβ1-42 to cells; also recorded: able to rescue Aβ1-42-induced toxicity to levels that were not significantly different from untreated cells; also recorded: able to prevent the toxicity induced by Aβ1-42 to neuroblastoma cells (SH-SY5Y)
CCN(C)C(=O)Oc1cccc(NC(=O)c2cc3ccccc3[nH]2)c1 [Compound 5a1]		6.0	29.9 ± 0.4 µM	26.9%	1 µM		> 2000 µM		
Cc1c(O)c(=O)ccn1C [Deferiprone, deferiprone, reference compound]							148 ± 3 µM		
CCN(C)C(=O)Oc1cccc(CCNC(=O)c2cc3cccc(O)c3[nH]2)c1 [Compound 5c3, 3-(2-(7-Hydroxy-1H-indole-2-carboxamido)ethyl)phenyl ethyl(methyl)carbamate]	26.8 ± 0.3 µM	1.8	14.9 ± 0.7 µM	55.5%	5 µM		20.7 ± 0.4 µM		also present neuroprotection
CCN(C)C(=O)Oc1cccc(NC(=O)c2cc3cc(O)ccc3[nH]2)c1 [Compound 5a2, 3-(5-Hydroxy-1H-indole-2-carboxamido)phenyl ethyl(methyl)carbamate]	206 ± 4 µM	64.0	3.22 ± 0.02 µM	25%	2.5 µM		8.4 ± 0.2 µM		
CCN(C)C(=O)Oc1cccc(CCNC(=O)c2cc3ccccc3[nH]2)c1 [Compound 5c1, 3-(2-(1H-indole-2-carboxamido)ethyl)phenyl ethylmethylcarbamate]	40 ± 2 µM	2.8	14.5 ± 0.7 µM	25.6%	5 µM		> 2000 µM		
Cc1c(C)c2c(c(C)c1O)CCC(C)(C(=O)O)O2 (stereo not drawn) [Trolox, reference compound]							13.8 ± 0.2 µM		
CCN(C)C(=O)Oc1cccc(CCNC(=O)c2cc3cc(O)ccc3[nH]2)c1 [Compound 5c2, 3-(2-(5-Hydroxy-1H-indole-2-carboxamido)ethyl)phenyl ethyl(methyl)carbamate]	58.6 ± 0.3 µM	3.8	15.2 ± 0.4 µM	49.9%	2.5 µM		8.5 ± 0.6 µM		can prevent the toxicity induced by Aβ1-42 to cells; also recorded: able to rescue Aβ1-42-induced toxicity to levels that were not significantly different from untreated cells; also recorded: able to prevent the toxicity induced by Aβ1-42 to neuroblastoma cells (SH-SY5Y)

Source: article PMC10892719 (Pharmaceutics, 2024)
